Numbered stars: 1 amine (or outer) side, 2 acyl side, 3 side chain; on linkers, the order of the positions; unused ones are H or OH. Bridge positions count the residues as written; N and C are the ends. Square brackets hold non-standard residues; d marks the D form. Peptide text beside a SMILES is read from it. Trp(βS-Me,7-OMe) = COc1cccc2c([C@H](C)[C@H](N)C(=O)O)c[nH]c12; Trp(1-CH2COOH) = N[C@@H](Cc1cn(CC(=O)O)c2ccccc12)C(=O)O; Morpholine(3S-CO,6,6-Me2) = CC1(C)CN[C@H](C(=O)O)CO1; Trp(βS-Me) = C[C@@H](c1c[nH]c2ccccc12)[C@H](N)C(=O)O; Trp(7-CN) = N#Cc1cccc2c(C[C@H](N)C(=O)O)c[nH]c12; Trp(7-Cl) = N[C@@H](Cc1c[nH]c2c(Cl)cccc12)C(=O)O; Phe(3-CONH2) = NC(=O)c1cccc(C[C@H](N)C(=O)O)c1; Phe(4-CONH2) = NC(=O)c1ccc(C[C@H](N)C(=O)O)cc1; Phe(4-COOH) = N[C@@H](Cc1ccc(C(=O)O)cc1)C(=O)O; Trp(7-aza) = N[C@@H](Cc1c[nH]c2ncccc12)C(=O)O; Phe(4-CH2NH2) = NCc1ccc(C[C@H](N)C(=O)O)cc1; X23 = N[C@@H]1CCN([*:1])[C@H](C(=O)[*:2])C1; dPro(4S-NH2) = N[C@@H]1CN[C@@H](C(=O)O)C1; Pip(5R-OH) = O=C(O)[C@@H]1CC[C@@H](O)CN1; X1 = O=C([C@@H]1CC[C@H](N[*:1])C1)[*:2]; Nle(5,5-F2) = CC(F)(F)CC[C@H](N)C(=O)O; 2Nal = N[C@@H](Cc1ccc2ccccc2c1)C(=O)O; Pip(4-aza) = O=C(O)[C@@H]1CNCCN1; 4Pal = N[C@@H](Cc1ccncc1)C(=O)O; NMeE = CN[C@@H](CCC(=O)O)C(=O)O; dHyp = O=C(O)[C@H]1C[C@H](O)CN1; Cit = NC(=O)NCCC[C@H](N)C(=O)O; NEtAla = CCN[C@@H](C)C(=O)O; Pip = O=C(O)[C@@H]1CCCCN1; αMeS = C[C@](N)(CO)C(=O)O; Nle = CCCC[C@H](N)C(=O)O; Sar = CNCC(=O)O

The assay concerns the target T1, TNFα-induced NF-κB signal transduction pathway (TNFR1 signaling) in THP-1 cells (Homo sapiens, UniProt P19438).
T1 sequence (P19438 30-455): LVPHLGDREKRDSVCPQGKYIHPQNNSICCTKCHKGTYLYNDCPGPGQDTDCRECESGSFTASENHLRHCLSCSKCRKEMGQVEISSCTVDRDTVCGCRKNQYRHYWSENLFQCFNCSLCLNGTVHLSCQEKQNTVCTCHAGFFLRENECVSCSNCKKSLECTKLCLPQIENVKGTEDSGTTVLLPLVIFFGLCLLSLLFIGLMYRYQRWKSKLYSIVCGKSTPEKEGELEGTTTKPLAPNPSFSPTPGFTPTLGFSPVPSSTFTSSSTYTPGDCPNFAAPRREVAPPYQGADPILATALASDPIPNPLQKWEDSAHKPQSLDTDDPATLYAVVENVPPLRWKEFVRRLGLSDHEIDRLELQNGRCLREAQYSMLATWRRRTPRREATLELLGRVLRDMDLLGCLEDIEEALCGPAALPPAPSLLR
Nature of the assay: THP-1 Lucia NF-κB reporter cell assay, inhibition of TNFα-induced NF-κB signaling. In kind it is cell-based. The note with it: THP-1 NF-κB Lucia reporter cells, 10 ng/mL TNFα, 16-18 h, secreted luciferase; read-out: THP-1 IC50. In short, it runs like this:
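Read-out: secreted Lucia luciferase luminescence (QUANTI-Luc) from supernatant after 16-18 h, 37 °C, 10 ng/mL rhTNFα. Peptide pretreatment 1 h at 37 °C; 20,000 cells/well, selection antibiotics omitted. IC50 via 4-parameter logistic model against min/max controls.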
For the molecule `CCCC[C@@H]1NC(=O)[C@@H]2CC[C@@H](C2)NC(=O)[C@H]([C@@H](C)c2c[nH]c3c(OC)cccc23)NC(=O)CN(C)C(=O)[C@H](Cc2ccc(C(=O)O)cc2)NC(=O)[C@H](Cc2ccc(C(N)=O)cc2)NC(=O)[C@](C)(CO)NC(=O)[C@H](Cc2c[nH]c3c(C#N)cccc23)NC(=O)[C@H](Cc2ccc(C(=O)O)cc2)NC(=O)[C@H](CC(N)=O)NC(=O)[C@H]2C[C@H](N)CN2C(=O)[C@H](Cc2cn(CC(=O)O)c3ccccc23)NC(=O)[C@@H]2CC[C@@H](O)CN2C(=O)[C@H](Cc2ccncc2)NC1=O` [SEQ ID NO. 104] (cyclo([4Pal][Pip(5R-OH)][Trp(1-CH2COOH)][dPro(4S-NH2)]N[Phe(4-COOH)][Trp(7-CN)][αMeS][Phe(4-CONH2)][Phe(4-COOH)][Sar][Trp(βS-Me,7-OMe)][X1][Nle])), the IC50 stood at 1 nM.
To `CCCC[C@@H]1NC(=O)CSC[C@@H](C(N)=O)NC(=O)[C@H]([C@@H](C)c2c[nH]c3c(OC)cccc23)NC(=O)CN(C)C(=O)[C@H](Cc2ccc(O)cc2)NC(=O)[C@H](Cc2ccc(C(=O)O)cc2)NC(=O)[C@](C)(CO)NC(=O)[C@H](Cc2c[nH]c3c(Cl)cccc23)NC(=O)[C@H](Cc2ccncc2)NC(=O)[C@H](CC(N)=O)NC(=O)[C@H](C)N(CC)C(=O)[C@H](Cc2c[nH]c3ccccc23)NC(=O)[C@@H]2COC(C)(C)CN2C(=O)[C@H](Cc2ccncc2)NC1=O` [SEQ ID NO. 183] ({CH2CO}-[Nle][4Pal][Morpholine(3S-CO,6,6-Me2)]W[NEtAla]N[4Pal][Trp(7-Cl)][αMeS][Phe(4-COOH)]Y[Sar][Trp(βS-Me,7-OMe)]C-NH2; thioether N-14) belongs 2.8 nM.
To `CCCC[C@@H]1NC(=O)[C@@H]2CC[C@@H](C2)NC(=O)[C@H]([C@@H](C)c2c[nH]c3c(OC)cccc23)NC(=O)CN(C)C(=O)[C@H](Cc2ccc(C(N)=O)cc2)NC(=O)[C@H](Cc2ccc(C(N)=O)cc2)NC(=O)[C@](C)(CO)NC(=O)[C@H](Cc2c[nH]c3c(Cl)cccc23)NC(=O)[C@H](Cc2ccc(C(=O)O)cc2)NC(=O)[C@H](CC(N)=O)NC(=O)[C@H]2C[C@H](O)CN2C(=O)[C@H](Cc2c[nH]c3ccccc23)NC(=O)[C@@H]2CC[C@@H](O)CN2C(=O)[C@H](Cc2ccncc2)NC1=O` [SEQ ID NO. 196] (cyclo([4Pal][Pip(5R-OH)]W[dHyp]N[Phe(4-COOH)][Trp(7-Cl)][αMeS][Phe(4-CONH2)][Phe(4-CONH2)][Sar][Trp(βS-Me,7-OMe)][X1][Nle])) belongs 0.6 nM.
For `C[C@@H](c1c[nH]c2ccccc12)[C@@H]1NC(=O)CN(C)C(=O)[C@H](Cc2ccc(CN)cc2)NC(=O)[C@H](Cc2ccc(C(=O)O)cc2)NC(=O)[C@](C)(CO)NC(=O)[C@H](Cc2ccc3ccccc3c2)NC(=O)[C@H](Cc2ccc(CN)cc2)NC(=O)[C@H](CC(N)=O)NC(=O)[C@H]2CCCN2C(=O)[C@H]([C@@H](C)c2c[nH]c3ccccc23)NC(=O)[C@H](CO)NC(=O)[C@H](Cc2ccc(CN)cc2)NC(=O)[C@H](CCCNC(N)=O)NC(=O)CSC[C@@H](C(N)=O)NC1=O` [SEQ ID NO. 206] ({CH2CO}-[Cit][Phe(4-CH2NH2)]S[Trp(βS-Me)][dP]N[Phe(4-CH2NH2)][2Nal][αMeS][Phe(4-COOH)][Phe(4-CH2NH2)][Sar][Trp(βS-Me)]C-NH2; thioether N-14) the value was 271 nM.
For the molecule `CCCC[C@@H]1NC(=O)[C@@H]2CC[C@@H](C2)NC(=O)[C@H]([C@@H](C)c2c[nH]c3c(OC)cccc23)NC(=O)CN(C)C(=O)[C@H](Cc2cccc(C(N)=O)c2)NC(=O)[C@H](Cc2ccc(C(=O)O)cc2)NC(=O)[C@](C)(CO)NC(=O)[C@H](Cc2c[nH]c3c(Cl)cccc23)NC(=O)[C@H](Cc2ccncc2)NC(=O)[C@H](CC(N)=O)NC(=O)[C@H](CCC(=O)O)N(C)C(=O)[C@H](Cc2c[nH]c3ccccc23)NC(=O)[C@@H]2CCCCN2C(=O)[C@H](Cc2ccncc2)NC1=O` [SEQ ID NO. 221] (cyclo([4Pal][Pip]W[NMeE]N[4Pal][Trp(7-Cl)][αMeS][Phe(4-COOH)][Phe(3-CONH2)][Sar][Trp(βS-Me,7-OMe)][X1][Nle])), the IC50 was determined as 1 nM.
For `CCCC[C@@H]1NC(=O)[C@@H]2CC[C@@H](C2)NC(=O)[C@H]([C@@H](C)c2c[nH]c3c(OC)cccc23)NC(=O)CN(C)C(=O)[C@H](Cc2ccc(C(N)=O)cc2)NC(=O)[C@H](Cc2ccc(C(N)=O)cc2)NC(=O)[C@](C)(CO)NC(=O)[C@H](Cc2c[nH]c3c(C#N)cccc23)NC(=O)[C@H](Cc2ccc(C(=O)O)cc2)NC(=O)[C@H](CC(N)=O)NC(=O)[C@H]2C[C@H](O)CN2C(=O)[C@H](Cc2c[nH]c3ncccc23)NC(=O)[C@@H]2CC[C@@H](O)CN2C(=O)[C@H](Cc2ccncc2)NC1=O` [SEQ ID NO. 254] (cyclo([4Pal][Pip(5R-OH)][Trp(7-aza)][dHyp]N[Phe(4-COOH)][Trp(7-CN)][αMeS][Phe(4-CONH2)][Phe(4-CONH2)][Sar][Trp(βS-Me,7-OMe)][X1][Nle])) the value was 0.4 nM; for `CCCC[C@@H]1NC(=O)[C@@H]2CC[C@@H](C2)NC(=O)[C@H]([C@@H](C)c2c[nH]c3c(OC)cccc23)NC(=O)CN(C)C(=O)[C@H](Cc2ccc(CN)cc2)NC(=O)[C@H](Cc2ccc(C(=O)O)cc2)NC(=O)[C@](C)(CO)NC(=O)[C@H](Cc2c[nH]c3c(Cl)cccc23)NC(=O)[C@H](Cc2ccncc2)NC(=O)[C@H](CC(N)=O)NC(=O)[C@H](CCC(=O)O)N(C)C(=O)[C@H](Cc2c[nH]c3ccccc23)NC(=O)[C@@H]2CNCCN2C(=O)[C@H](Cc2ccncc2)NC1=O` [SEQ ID NO. 269] (cyclo([4Pal][Trp(7-Cl)][αMeS][Phe(4-COOH)][Phe(4-CH2NH2)][Sar][Trp(βS-Me,7-OMe)][X1][Nle][4Pal][Pip(4-aza)]W[NMeE]N)), 1 nM; for `CCCC[C@@H]1NC(=O)CSC[C@@H](C(N)=O)NC(=O)[C@H]([C@@H](C)c2c[nH]c3c(OC)cccc23)NC(=O)CN(C)C(=O)[C@H](Cc2ccc(O)cc2)NC(=O)[C@H](Cc2ccc(C(=O)O)cc2)NC(=O)[C@](C)(CO)NC(=O)[C@H](Cc2c[nH]c3c(Cl)cccc23)NC(=O)[C@H](Cc2ccncc2)NC(=O)[C@H](CC(N)=O)NC(=O)[C@H](CCC(=O)O)N(C)C(=O)[C@H](Cc2c[nH]c3ccccc23)NC(=O)[C@@H]2C[C@H](N)CCN2C(=O)[C@H](Cc2ccncc2)NC1=O` [SEQ ID NO. 271] ({CH2CO}-[Nle][4Pal][X23]W[NMeE]N[4Pal][Trp(7-Cl)][αMeS][Phe(4-COOH)]Y[Sar][Trp(βS-Me,7-OMe)]C-NH2; thioether N-14), 2.7 nM.
On to `COc1cccc2c([C@H](C)[C@@H]3NC(=O)CN(C)C(=O)[C@H](Cc4ccc(O)cc4)NC(=O)[C@H](Cc4ccc(C(=O)O)cc4)NC(=O)[C@](C)(CO)NC(=O)[C@H](Cc4c[nH]c5c(Cl)cccc45)NC(=O)[C@H](Cc4ccncc4)NC(=O)[C@H](CC(N)=O)NC(=O)[C@H](CCC(=O)O)N(C)C(=O)[C@H](Cc4c[nH]c5ccccc45)NC(=O)[C@@H]4CNCCN4C(=O)[C@H](Cc4ccncc4)NC(=O)[C@H](CCC(C)(F)F)NC(=O)[C@@H]4CC[C@@H](C4)NC3=O)c[nH]c12` [SEQ ID NO. 275] (cyclo([4Pal][Trp(7-Cl)][αMeS][Phe(4-COOH)]Y[Sar][Trp(βS-Me,7-OMe)][X1][Nle(5,5-F2)][4Pal][Pip(4-aza)]W[NMeE]N)), for which the IC50 is 1.4 nM.
